pIC50: −log10 of the molar value.

The target of one assay is T1, Proto-oncogene tyrosine-protein kinase Src (Homo sapiens, UniProt P12931). Briefly: Inhibition of fluorescent (GpYEEI) binding to Src protein tyrosine kinase SH2 domain.
T1 sequence (P12931 2-536 limits assumed): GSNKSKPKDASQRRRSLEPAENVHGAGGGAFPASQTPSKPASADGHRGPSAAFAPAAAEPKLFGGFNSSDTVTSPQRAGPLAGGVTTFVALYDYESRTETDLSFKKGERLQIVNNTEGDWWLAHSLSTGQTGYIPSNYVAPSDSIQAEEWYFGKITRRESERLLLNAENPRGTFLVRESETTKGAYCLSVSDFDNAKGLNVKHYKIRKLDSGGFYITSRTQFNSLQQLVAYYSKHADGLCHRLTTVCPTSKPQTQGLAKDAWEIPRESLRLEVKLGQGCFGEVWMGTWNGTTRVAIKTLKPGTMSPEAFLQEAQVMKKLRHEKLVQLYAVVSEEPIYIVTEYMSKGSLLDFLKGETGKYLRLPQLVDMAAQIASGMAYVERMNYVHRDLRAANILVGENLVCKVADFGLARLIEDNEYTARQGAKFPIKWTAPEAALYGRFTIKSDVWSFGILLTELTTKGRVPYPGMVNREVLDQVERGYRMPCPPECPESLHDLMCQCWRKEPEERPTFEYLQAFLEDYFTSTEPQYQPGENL
In turn, `COC(=O)c1cc(OCC(=O)N[C@@H](Cc2ccccc2)C(=O)NCc2cccc(OC)c2)cc(C(=O)OC)n1` gave a pIC50 of 3.18.
The same measure, in the same setting: the value for `COC(=O)c1cc(OCC(=O)N[C@@H](CC(C)C)C(=O)NCc2cccc(OC)c2)cc(C(=O)OC)n1` was 3.15; that for `COC(=O)c1cc(OCC(=O)N[C@H](C(=O)NCc2ccc3c(c2)OCO3)c2ccccc2)cc(C(=O)OC)n1` was 3.15.
`COC(=O)c1cc(OCC(=O)N[C@@H](Cc2ccccc2)C(=O)NCc2ccc3c(c2)OCO3)cc(C(=O)OC)n1` gave a pIC50 of 3.40.
Still for that read-out and setting: for `COc1ccc(CNC(=O)[C@H](CC(C)C)NC(=O)COc2cc(C(=O)O)cc(C(=O)O)c2)cc1` the value was 3.06.

The next assay addresses T1, Proto-oncogene tyrosine-protein kinase Src. Nature of the assay: Inhibition of fluorescent (GpYEEI) binding to Src protein tyrosine kinase SH2 domain; NA = No significant inhibition.
With `COC(=O)c1cc(OCC(=O)N[C@H](C(=O)NCc2cccc(OC)c2)c2ccccc2)cc(C(=O)OC)n1`, the IC50 entry was “Not Active”.

One may read the pIC50 as the IC50 on a negative log10 scale, so that one unit is a factor of ten. A low value points to a high IC50.

(Values after ChEMBL document CHEMBL1137152, “Copper dipicolinates as peptidomimetic ligands for the Src SH2 domain” (Bioorg Med Chem Lett, 2004).)
